We go through 18 compounds from patent US20250034136A1 (Nimbus Wadjet, Inc., priority 2023, published 2025).

Read-outs that look alike come from different tables or passages of the source. Where only a bound is given, the exact number is not on record here.

The subject of assay [1] is p21 induction in HCT116 cells. The experiment in a line: p21 induction in HCT116 cells. It counts as cell-based. The conditions noted are these: HCT116 cells, 24 h compound incubation, read-out: P21_EC50. Put shortly: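 EC50 from non-linear curve fit of p21 immunofluorescence (800 nm), with GAPDH (700 nm) read alongside. DMSO and a reference WRN inhibitor served as low and high controls. Cells (2,000/well) got 11 compound concentrations in duplicate for 24 h at 37 °C.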

The target in assay [2] is WRN (BV08), human Werner helicase (Uniprot Q14191, amino acids 517-1235 with L1074F point mutation) (Homo sapiens (Human), UniProt Q14191, L1074F). The experiment in a line: WRN (BV08) ADP-Glo assay. Conditions: class symbols A-E, read-out: ADP-Glo_hWRN_IC50. It counts as biochemical. On the technique in general: ADP-Glo turns the ADP formed in a reaction into a luminescent signal.
WRN (BV08), human Werner helicase (Uniprot Q14191, amino acids 517-1235 with L1074F point mutation), sequence (Q14191 other isoform, or with tags, fused parts or gaps L1074F (already in the parent)): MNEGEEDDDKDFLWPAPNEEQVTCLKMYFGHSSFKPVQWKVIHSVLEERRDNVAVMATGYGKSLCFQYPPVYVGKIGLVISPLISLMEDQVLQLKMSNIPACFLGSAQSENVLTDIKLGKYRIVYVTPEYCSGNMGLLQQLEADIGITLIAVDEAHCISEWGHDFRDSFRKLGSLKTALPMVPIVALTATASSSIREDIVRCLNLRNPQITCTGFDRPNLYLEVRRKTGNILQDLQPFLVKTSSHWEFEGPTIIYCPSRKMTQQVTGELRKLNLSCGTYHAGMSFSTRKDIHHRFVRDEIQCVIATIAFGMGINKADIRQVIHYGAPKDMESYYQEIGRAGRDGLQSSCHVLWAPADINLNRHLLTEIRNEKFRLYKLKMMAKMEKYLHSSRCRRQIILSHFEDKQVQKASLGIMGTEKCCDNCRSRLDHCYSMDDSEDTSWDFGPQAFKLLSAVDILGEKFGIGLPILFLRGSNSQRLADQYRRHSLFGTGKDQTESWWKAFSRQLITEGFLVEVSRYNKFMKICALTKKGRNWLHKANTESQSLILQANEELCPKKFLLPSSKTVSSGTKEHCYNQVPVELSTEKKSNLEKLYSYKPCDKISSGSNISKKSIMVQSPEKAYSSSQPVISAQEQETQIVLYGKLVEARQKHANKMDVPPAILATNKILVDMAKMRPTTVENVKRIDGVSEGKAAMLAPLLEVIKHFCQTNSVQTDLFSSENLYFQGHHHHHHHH

With `CCc1c(N2CCN(C(=O)c3ncnc(C)c3O)CC2)c(=O)c2nc(OC)cnc2n1CC(=O)Nc1ccc(C(F)(F)F)cc1Cl` [I-81, N-(2-chloro-4-(trifluoromethyl)phenyl)-2-(6-ethyl-7-(4-(5-hydroxy-6-methylpyrimidine-4-carbonyl)piperazin-1-yl)-2-methoxy-8-oxopyrido[2,3-b]pyrazin-5(8H)-yl)acetamide], the EC50 in assay [1] (Homo sapiens, HCT-116, 24 h) was above 5 µM. The IC50 in assay [2] was 0.05 to 0.1 µM.
The like results for `[2H]C([2H])([2H])N(c1cnc2c(n1)c(=O)c(N1CCN(C(=O)c3ncnc(C)c3O)[C@H]3CC[C@@H]31)c(CC)n2CC(=O)Nc1ccc(C(F)(F)F)cc1F)C([2H])([2H])[2H]` [I-214, 2-{2-[di(2H3)methylamino]-6-ethyl-7-[(1S,6S)-5-(5-hydroxy-6-methylpyrimidine-4-carbonyl)-2,5-diazabicyclo[4.2.0]octan-2-yl]-8-oxo-5H,8H-pyrido[2,3-b]pyrazin-5-yl}-N-[2-fluoro-4-(trifluoromethyl)phenyl]acetamide] were, in that order, below 0.5 µM and 0.005 to 0.05 µM.
On the same counts, the results for `CCc1c(N2CCN(C(=O)c3cnn(C)c3)[C@H]3CC[C@@H]32)c(=O)c2nc(N(C)C)cnc2n1CC(=O)Nc1ccc(C(F)(F)F)cc1Cl` [I-184, N-[2-chloro-4-(trifluoromethyl)phenyl]-2-[2-(dimethylamino)-6-ethyl-7-[(1S,6S)-5-(1-methyl-1H-pyrazole-4-carbonyl)-2,5-diazabicyclo[4.2.0]octan-2-yl]-8-oxo-5H,8H-pyrido[2,3-b]pyrazin-5-yl]acetamide] are 2 to 5 µM and 0.005 to 0.05 µM.
On the same counts, the results for `CCc1c(N2CCN(C(=O)c3ncnc(C)c3O)CC2)c(=O)c2nc(N(C)C3CC(C)(O)C3)cnc2n1CC(=O)Nc1ccc(C(F)(F)F)cc1Cl` (stereo not drawn) [I-59, N-(2-chloro-4-(trifluoromethyl)phenyl)-2-(6-ethyl-2-((3-hydroxy-3-methylcyclobutyl)(methyl)amino)-7-(4-(5-hydroxy-6-methylpyrimidine-4-carbonyl)piperazin-1-yl)-8-oxopyrido[2,3-b]pyrazin-5(8H)-yl)acetamide] are 2 to 5 µM and 0.005 to 0.05 µM.
For the compound `CCc1c(N2CCN(C(=O)c3ncnc(C)c3O)[C@@H](C(F)F)C2)c(=O)c2nc(N(C)C)cnc2n1CC(=O)Nc1ccc(C(F)(F)F)cc1Cl` [I-197, N-[2-chloro-4-(trifluoromethyl)phenyl]-2-{7-[(3R)-3-(difluoromethyl)-4-(5-hydroxy-6-methylpyrimidine-4-carbonyl)piperazin-1-yl]-2-(dimethylamino)-6-ethyl-8-oxo-5H,8H-pyrido[2,3-b]pyrazin-5-yl}acetamide], the EC50 in assay [1] (Homo sapiens, HCT-116, 24 h) is above 5 µM. Besides, the IC50 in assay [2] is 0.05 to 0.1 µM.
On the same counts, the results for `CCc1c(N2CCN(C(=O)c3ncnc(C)c3O)[C@H]3CC[C@@H]32)c(=O)c2nc(N(C)[C@H]3CC[C@H](O)C3)cnc2n1CC(=O)Nc1ccc(C(F)(F)F)cc1Cl` [I-299, N-[2-chloro-4-(trifluoromethyl)phenyl]-2-{6-ethyl-7-[(1S,6S)-5-(5-hydroxy-6-methylpyrimidine-4-carbonyl)-2,5-diazabicyclo[4.2.0]octan-2-yl]-2-{[(1S,3S)-3-hydroxycyclopentyl](methyl)amino}-8-oxo-5H,8H-pyrido[2,3-b]pyrazin-5-yl}acetamide] are below 0.5 µM and 0.005 to 0.05 µM.
On the same counts, the results for `CCc1c(N2CCN(C(=O)c3ncnc(C)c3O)[C@H]3CC[C@@H]32)c(=O)c2nc(N(C)[C@@H]3CC[C@H](O)C3)cnc2n1CC(=O)Nc1ccc(C(F)(F)F)cc1Cl` [I-300, N-[2-chloro-4-(trifluoromethyl)phenyl]-2-{6-ethyl-7-[(1S,6S)-5-(5-hydroxy-6-methylpyrimidine-4-carbonyl)-2,5-diazabicyclo[4.2.0]octan-2-yl]-2-{[(1R,3S)-3-hydroxycyclopentyl](methyl)amino}-8-oxo-5H,8H-pyrido[2,3-b]pyrazin-5-yl}acetamide] are below 0.5 µM and 0.005 to 0.05 µM.
Take `CCc1c(N2CCN(C(=O)c3ncnc(C)c3O)[C@H]3CC[C@@H]32)c(=O)c2nc(N(C)[C@@H]3CC[C@@H](O)C3)cnc2n1CC(=O)Nc1ccc(C(F)(F)F)cc1Cl` [I-301, N-[2-chloro-4-(trifluoromethyl)phenyl]-2-{6-ethyl-7-[(1S,6S)-5-(5-hydroxy-6-methylpyrimidine-4-carbonyl)-2,5-diazabicyclo[4.2.0]octan-2-yl]-2-{[(1R,3R)-3-hydroxycyclopentyl](methyl)amino}-8-oxo-5H,8H-pyrido[2,3-b]pyrazin-5-yl}acetamide]: in assay [1] (Homo sapiens, HCT-116, 24 h), the EC50 was below 0.5 µM. Further, the IC50 in assay [2] is 0.005 to 0.05 µM.
The like results for `CCc1c(N2CCN(C(=O)c3ncnc(C)c3O)CC2)c(=O)c2nc(C(F)F)c(C)nc2n1CC(=O)Nc1ccc(C(F)(F)F)cc1Cl` [I-28, N-(2-chloro-4-(trifluoromethyl)phenyl)-2-(2-(difluoromethyl)-6-ethyl-7-(4-(5-hydroxy-6-methylpyrimidine-4-carbonyl)piperazin-1-yl)-3-methyl-8-oxopyrido[2,3-b]pyrazin-5(8H)-yl)acetamide] were, in that order, above 5 µM and 0.005 to 0.05 µM.
On to `CCc1c(N2CCN(C(=O)c3ncnc(C)c3O)[C@H]3CC[C@@H]32)c(=O)c2nc(N3CC[C@H]4C[C@H]43)cnc2n1CC(=O)Nc1ccc(C(F)(F)F)cc1Cl` (single isomer, unassigned) [I-219], for which the EC50 in assay [1] (Homo sapiens, HCT-116, 24 h) is below 0.5 µM. In addition, the IC50 in assay [2] is at most 0.005 µM.
With `CCc1c(N2C[C@H]3C[C@@H]2CN3C(=O)c2ncnc(C)c2O)c(=O)c2nc(N(C)C)cnc2n1CC(=O)Nc1ccc(C(F)(F)F)cc1Cl` (single isomer, unassigned) [I-257], in assay [1], the EC50 is above 5 µM. For the same compound, the IC50 in assay [2] is above 0.5 µM.
For the compound `CCc1c(N2CCN(C(=O)c3c(OC)ncc(C)c3O)[C@H]3CCC[C@@H]32)c(=O)c2nc(N(C)C)cnc2n1CC(=O)Nc1ccc(C(F)(F)F)cc1Cl` [I-243, 2-{7-[(4aS,7aS)-4-(4-hydroxy-2-methoxy-5-methylpyridine-3-carbonyl)-octahydro-1H-cyclopenta[b]pyrazin-1-yl]-2-(dimethylamino)-6-ethyl-8-oxo-5H,8H-pyrido[2,3-b]pyrazin-5-yl}-N-[2-chloro-4-(trifluoromethyl)phenyl]acetamide], the EC50 in assay [1] (Homo sapiens, HCT-116, 24 h) was below 0.5 µM. In addition, in assay [2], the IC50 was in the range of 0.005 to 0.05 µM.
The like results for `CCc1c(N2CCN(C(=O)c3nocc3O)CC2)c(=O)c2ncc(C)nc2n1CC(=O)Nc1ccc(C(F)(F)F)cc1Cl` [I-77, N-(2-chloro-4-(trifluoromethyl)phenyl)-2-(6-ethyl-7-(4-(4-hydroxyisoxazole-3-carbonyl)piperazin-1-yl)-3-methyl-8-oxopyrido[2,3-b]pyrazin-5(8H)-yl)acetamide] were, in that order, above 5 µM and 0.005 to 0.05 µM.
The like results for `CCc1c(N2CCN(C(=O)c3cnn(C)c3)CC2)c(=O)c2ncc(C)nc2n1CC(=O)Nc1ccc(C(F)(F)F)cc1Cl` [I-2, N-(2-chloro-4-(trifluoromethyl)phenyl)-2-(6-ethyl-3-methyl-7-(4-(1-methyl-1H-pyrazole-4-carbonyl)piperazin-1-yl)-8-oxopyrido[2,3-b]pyrazin-5(8H)-yl)acetamide] were, in that order, above 5 µM and 0.05 to 0.1 µM.
On the same counts, the results for `CCc1c(N2CCN(C(=O)c3ncnc(C)c3O)CC2)c(=O)c2nc(CO)cnc2n1CC(=O)Nc1ccc(C(F)(F)F)cc1Cl` [I-25, N-(2-chloro-4-(trifluoromethyl)phenyl)-2-(6-ethyl-7-(4-(5-hydroxy-6-methylpyrimidine-4-carbonyl)piperazin-1-yl)-2-(hydroxymethyl)-8-oxopyrido[2,3-b]pyrazin-5(8H)-yl)acetamide] are above 5 µM and 0.05 to 0.1 µM.
`CCc1c(N2CCN(C(=O)c3ncnc(C)c3O)[C@H]3CC[C@@H]32)c(=O)c2nc(N(C)C3CCC(O)C3)cnc2n1CC(=O)Nc1ccc(C(F)(F)F)cc1Cl` (stereo partly drawn) [I-288, N-[2-chloro-4-(trifluoromethyl)phenyl]-2-{6-ethyl-7-[(1S,6S)-5-(5-hydroxy-6-methylpyrimidine-4-carbonyl)-2,5-diazabicyclo[4.2.0]octan-2-yl]-2-[(3-hydroxycyclopentyl)(methyl)amino]-8-oxo-5H,8H-pyrido[2,3-b]pyrazin-5-yl}acetamide]: in assay [1] (Homo sapiens, HCT-116, 24 h), the EC50 was below 0.5 µM. The IC50 in assay [2] was 0.005 to 0.05 µM.
With `CCc1c(N2CCN(C(=O)c3ncnc(C)c3O)[C@@H]3CC(F)(F)C[C@H]32)c(=O)c2nc(N(C)C)cnc2n1CC(=O)Nc1ccc(C(F)(F)F)cc1Cl` (single isomer, unassigned) [I-297, N-(2-chloro-4-(trifluoromethyl)phenyl)-2-(7-(6,6-difluoro-4-(5-hydroxy-6-methylpyrimidine-4-carbonyl)octahydro-1H-cyclopenta[b]pyrazin-1-yl)-2-(dimethylamino)-6-ethyl-8-oxopyrido[2,3-b]pyrazin-5(8H)-yl)acetamide], the EC50 in assay [1] (Homo sapiens, HCT-116, 24 h) is above 5 µM. Also, the IC50 in assay [2] fell in the range of 0.1 to 0.5 µM.
The like results for `CCc1c(N2CCN(C(=O)c3ncnc(C)c3O)[C@H]3CC[C@@H]32)c(=O)c2nc(N(C)C)cnc2n1CC(=O)Nc1cc(F)c(C(F)(F)F)cc1C` [I-236, 2-[2-(dimethylamino)-6-ethyl-7-[(1S,6S)-5-(5-hydroxy-6-methylpyrimidine-4-carbonyl)-2,5-diazabicyclo[4.2.0]octan-2-yl]-8-oxo-5H,8H-pyrido[2,3-b]pyrazin-5-yl]-N-[5-fluoro-2-methyl-4-(trifluoromethyl)phenyl]acetamide] were, in that order, below 0.5 µM and 0.005 to 0.05 µM.
